From patent USRE32016E, “Analysis of lactic acid or lactate using lactate oxidase” (Eastman Kodak Company, priority 1981, dated 1985) come the findings set out here.

The assay has as its target lactate oxidase from Streptococcus faecalis ATCC 12755 (Enterococcus casseliflavus, UniProt C9AC47). As to conditions: read-out: Km for L(+)-lactate; 30° C., potassium phosphate buffer pH 7.0.

Sequence of lactate oxidase from Streptococcus faecalis ATCC 12755 (C9AC47 entry or part of it): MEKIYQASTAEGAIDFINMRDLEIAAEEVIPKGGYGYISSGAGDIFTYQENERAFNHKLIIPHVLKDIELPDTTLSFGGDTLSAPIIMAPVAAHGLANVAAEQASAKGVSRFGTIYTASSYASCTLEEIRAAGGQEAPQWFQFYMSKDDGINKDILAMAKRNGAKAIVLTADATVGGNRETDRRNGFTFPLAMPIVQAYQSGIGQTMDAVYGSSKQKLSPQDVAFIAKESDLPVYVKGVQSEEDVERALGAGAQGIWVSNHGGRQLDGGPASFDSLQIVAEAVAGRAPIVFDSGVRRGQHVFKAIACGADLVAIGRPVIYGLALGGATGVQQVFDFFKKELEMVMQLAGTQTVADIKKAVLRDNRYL
Procedure: For spectrophotometric assay of the lactate oxidase standard reaction mixtures contained in a total volume of 1.0 ml: 100 μmoles potassium phosphate buffer, pH 7.0, 25 μmoles lactic acid, 30 μg horseradish peroxidase (5.6 purpurogallin units), and 0.25 μmoles orthodianisidine. Samples were equilibrated at 30° C. and then reactions initiated by addition of S. faecalis lactate oxidase. Absorbance at 430 nm was measured in a Beckman A-25 Spectrophotometer. Initial rates were calculated from the linear portion of the curve and converted to units of lactate oxidase activity were appropriate. One unit=1 μmole of dye produced per minute at 30° C. using an ε=1.1×10^4 for orthodianisidine.
Reaction mixtures contained in a total volume of 1.0 ml: 90 μmoles potassium phosphate buffer, (pH 7.0), 0.2 μmoles orthodianisidine, or 96 μg 4-aminoantipyrene hydrochloride and 32 μg 1,7-dihydroxynaphthalene, 25 μg horseradish peroxidase (5.6-purpurogallin units) and 0.64 mg lactate oxidase (0.4 units).
Samples were equilibrated at 30° C. and the initial absorbance measured at 430 nm. […] For each serum sample, a blank, which contained all components except the lactate oxidase, was treated in the same manner as the sample. The ΔA430 for each blank was subtracted from the ΔA430 of the appropriate sample and the lactate concentration was determined by comparison to a lactate standard curve. […]

Regarding `C[C@H](O)C(=O)O` [L(+)-lactate], the Km worked out at 200 µM.

By Km is commonly meant the substrate concentration at which the rate is half of its maximum.
